Laboratory results as given in ChEMBL document CHEMBL1156212, “Curcumin derivatives inhibit testicular 17beta-hydroxysteroid dehydrogenase 3” (Bioorg Med Chem Lett, 2010).
Activity calls are given as the source filed them. No cut-off for these calls is given here.

Tests used:
[1] = molecular target: T1, 17-beta-hydroxysteroid dehydrogenase type 3 (Homo sapiens) (UniProt P37058); test: Inhibition of 17beta-HSD3 in human testis microsomes at 100 uM
T1 sequence (whole entry): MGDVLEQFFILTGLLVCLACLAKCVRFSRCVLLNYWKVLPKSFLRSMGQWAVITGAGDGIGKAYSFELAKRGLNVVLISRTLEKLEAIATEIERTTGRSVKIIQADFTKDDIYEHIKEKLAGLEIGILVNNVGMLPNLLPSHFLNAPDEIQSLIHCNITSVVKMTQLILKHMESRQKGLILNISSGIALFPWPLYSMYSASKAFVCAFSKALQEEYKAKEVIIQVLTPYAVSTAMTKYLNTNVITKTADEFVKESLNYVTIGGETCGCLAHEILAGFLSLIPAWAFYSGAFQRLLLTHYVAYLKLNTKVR

[2] = molecular target: T2, 17-beta-hydroxysteroid dehydrogenase type 3 (Rattus norvegicus) (UniProt O54939); test: Inhibition of 17beta-HSD3 in Sprague-Dawley rat laydig cells at 100 uM
T2 sequence (whole entry): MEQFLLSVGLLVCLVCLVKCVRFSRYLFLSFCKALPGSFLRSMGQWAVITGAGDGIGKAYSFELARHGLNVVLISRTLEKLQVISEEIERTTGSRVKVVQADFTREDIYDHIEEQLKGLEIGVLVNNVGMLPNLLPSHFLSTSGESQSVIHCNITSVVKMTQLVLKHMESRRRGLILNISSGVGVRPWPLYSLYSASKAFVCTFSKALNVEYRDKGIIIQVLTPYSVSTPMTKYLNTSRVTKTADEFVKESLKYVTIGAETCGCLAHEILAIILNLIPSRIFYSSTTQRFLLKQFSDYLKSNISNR

[3] = molecular target: T2, 17-beta-hydroxysteroid dehydrogenase type 3 (Rattus norvegicus); test: Inhibition of 17beta-HSD3 in Sprague-Dawley rat testis microsomes at 100 uM
[4] = molecular target: T3, 17-beta-hydroxysteroid dehydrogenase type 3 (Rattus norvegicus, UniProt O54939); test: Inhibition of 17beta-HSD3 in Sprague-Dawley rat testis microsomes
T3 sequence (O54939 whole entry): T2 sequence (whole entry)

[5] = molecular target: T4, 17-beta-hydroxysteroid dehydrogenase type 3 (Homo sapiens, UniProt P37058); test: Inhibition of 17beta-HSD3 in human testis microsomes
T4 sequence (P37058 whole entry): T1 sequence (whole entry)

[6] = molecular target: T3, 17-beta-hydroxysteroid dehydrogenase type 3; test: Inhibition of 17beta-HSD3 in Sprague-Dawley rat laydig cells
[7] = molecular target: T4, 17-beta-hydroxysteroid dehydrogenase type 3; test: Inhibition of 17beta-HSD3
[8] = molecular target: T1, 17-beta-hydroxysteroid dehydrogenase type 3 (Homo sapiens); conditions: Testis, Microsomes, 1 to 10 uM
Description: Uncompetitive inhibition of 17beta-HSD3 in human testis microsomes at 1 to 10 uM by Lineweaver-Burke plot analysis

[9] = molecular target: T2, 17-beta-hydroxysteroid dehydrogenase type 3 (Rattus norvegicus); test: Uncompetitive inhibition of 17beta-HSD3 in Sprague-Dawley rat testis microsomes at 1 to 10 uM by Lineweaver-Burke plot analysis; conditions: Microsome
[10] = Inhibition of LH-stimulated testosterone production in Sprague-Dawley rat leydig cells at 10 uM after 18 hrs by tritium based radio immuno assay relative to control; type: functional; conditions: read-out: INH

| SMILES | inhibition [1] | inhibition [2] | inhibition [3] | also measured |
| --- | --- | --- | --- | --- |
| O=C1/C(=C/c2cccc(C(F)(F)F)c2F)CC/C1=C\c1cccc(C(F)(F)F)c1F | inactive | inactive | 23% | – |
| O=C1/C(=C/c2ccc(O)cc2)CCC/C1=C\c1ccc(O)cc1 | 38% | 13% | 34% | – |
| O=C1/C(=C/c2cccc(Br)c2)CC/C1=C\c1cccc(Br)c1 | 14% | 30% | – | IC50 [4]: 0.7 µM |
| O=C1/C(=C/c2ccc(OC3CCCOC3)cc2)CCC/C1=C\c1ccc(OC2CCCOC2)cc1 (stereo unspecified) | inactive | 16% | 21% | – |
| O=C1/C(=C/c2ccc(F)cc2)CC/C1=C\c1ccc(F)cc1 | 11% | 14% | 15% | – |
| COc1cc(/C=C2\CCC/C(=C\c3ccc(OC4CCCOC4)c(OC)c3)C2=O)ccc1OC1CCCOC1 (stereo unspecified) | inactive | 26% | 27% | – |
| O=C(/C=C/c1cccc(Br)c1)/C=C/c1cccc(Br)c1 | – | 20% | – | IC50 [4]: 8.5 µM; IC50 [5]: 2.7 µM |
| COc1cc(/C=C/C(=O)/C=C/c2cc(OC)c(OC)c(OC)c2)cc(OC)c1OC | inactive | inactive | inactive | – |
| CCOc1ccc(/C=C2\CC/C(=C\c3ccc(OCC)cc3)C2=O)cc1 | inactive | 14% | inactive | – |
| COc1cc(/C=C2\CC/C(=C\c3cc(OC)c(OC)c(OC)c3)C2=O)cc(OC)c1OC | inactive | 11% | inactive | – |
| COc1cc(/C=C2\CC/C(=C\c3ccc(OCCCN(C)C)c(OC)c3)C2=O)ccc1OCCCN(C)C | 28% | 38% | 32% | – |
| CN(C)c1ccc(/C=C/C(=O)/C=C/c2ccc(N(C)C)cc2)cc1 | – | inactive | 15% | IC50 [5]: 2.4 µM |
| O=C(/C=C/c1ccc(F)cc1)/C=C/c1ccc(F)cc1 | 39% | – | – | IC50 [4]: 3.3 µM; IC50 [6]: 0.1 µM |
| O=C1/C(=C/c2cccc(Br)c2)CCC/C1=C\c1cccc(Br)c1 | 15% | 25% | 40% | – |
| CCOc1ccc(/C=C/C(=O)/C=C/c2ccc(OCC)cc2)cc1 | 16% | – | 16% | IC50 [6]: 0.07 µM |
| O=C1/C(=C/c2ccc(O)cc2)CC/C1=C\c1ccc(O)cc1 | 28% | 18% | 15% | – |
| CN(C)c1ccc(/C=C2\CC/C(=C\c3ccc(N(C)C)cc3)C2=O)cc1 | inactive | inactive | inactive | – |
| O=C1/C(=C/c2ccc(F)cc2)CCC/C1=C\c1ccc(F)cc1 | inactive | inactive | inactive | – |
| O=C1C=CC(=O)C(c2ccc(-c3ccccc3)cc2)=C1 | – | – | – | IC50 [5]: 2.7 µM |
| O=C1/C(=C/c2ccc(OC3CCCOC3)cc2)CC/C1=C\c1ccc(OC2CCCOC2)cc1 (stereo unspecified) | inactive | inactive | 13% | – |
| O=C(/C=C/c1ccc(O)cc1)/C=C/c1ccc(O)cc1 | 46% | 30% | 33% | – |
| COc1cc(/C=C2\CCC/C(=C\c3cc(OC)c(OC)c(OC)c3)C2=O)cc(OC)c1OC | – | – | – | IC50 [4]: 1.8 µM; IC50 [5]: 0.1 µM; IC50 [6]: > 100 µM |
| C[C@]12CC[C@H](OCCc3ccccc3)CC1CC[C@@H]1[C@@H]2CC[C@]2(C)C(=O)CC[C@@H]12 (stereo partly specified) | – | – | – | IC50 [7]: 0.057 µM |
| COc1cc(/C=C2\CC/C(=C\c3ccc(OC4CCCOC4)c(OC)c3)C2=O)ccc1OC1CCCOC1 (stereo unspecified) | inactive | inactive | inactive | – |
| COc1cc(/C=C/C(=O)CC(=O)/C=C/c2ccc(O)c(OC)c2)ccc1O [CURCUMIN] | – | – | – | IC50 [4]: 2.3 µM; IC50 [5]: 67.3 µM; inhibition [8]: Active; inhibition [9]: Active; IC50 [6]: 9 µM; inhibition at 10 µM [10]: 64% |
| CCOc1ccc(/C=C2\CCC/C(=C\c3ccc(OCC)cc3)C2=O)cc1 | 13% | inactive | 16% | – |
| CN(C)c1ccc(/C=C2\CCC/C(=C\c3ccc(N(C)C)cc3)C2=O)cc1 | 17% | 12% | 10% | – |
| O=C(/C=C/c1ccc(OC2CCCOC2)cc1)/C=C/c1ccc(OC2CCCOC2)cc1 (stereo unspecified) | 22% | – | 29% | IC50 [6]: 1.3 µM |
| COc1cc(/C=C/C(=O)/C=C/c2ccc(OC3CCCOC3)c(OC)c2)ccc1OC1CCCOC1 (stereo unspecified) | 20% | inactive | 35% | – |
